In US20250235472A1, “USE OF 6-PHOSPHOGLUCONIC ACID AND DERIVATIVE THEREOF IN PREPARING MEDICAMENT FOR PREVENTING OR TREATING GLYCOMETABOLISM DISORDER DISEASES” (FUDAN UNIVERSITY, priority 2022, published 2025):

Assays:
[1] = system: type 1 diabetes mellitus mice; assay: Random blood glucose level in streptozotocin type 1 diabetes mellitus mouse model; type: in vivo; details: 200 mg/kg at 8 a.m. and 8 p.m. everyday; compared with the normal saline group; FIG. 4
Source text: (§1) • 1. Blood glucose test strips and blood glucose meter, from Eli Lilly and Company, USA; • 2. C57 B6/J Female mice, from Nanjing Gem Pharmaceutical Co., Ltd.; • 3. Streptozotocin, from Sigma-Aldrich Company, USA; • 4. Ultrasensitive insulin kit, from ALPCO Company, USA; • 5. Insulin antibody, from DAKO Company, USA; • 6. Glucagon antibody, from ABCAM Company, USA; and • 7. Other reagents required for immunofluorescence assay were purchased from Shanghai Sangon Technology Co., Ltd.
(§2) An 8-week-old C57B6/J female mouse was administered intraperitoneally with 200 mg/kg of streptozotocin solution. After 5 days of injection, the random blood glucose level of the mice was measured, mice with blood glucose levels higher than 20 mmol/L were selected and randomly divided into two groups for subsequent experiments.
(§3) Type 1 diabetes mellitus mouse models were administered 200 mg/kg of 6-phosphogluconic acid methyl ester (compound 1-1) or physiological saline at 8 a.m. and 8 p.m. everyday. The random blood glucose level of each mouse was measured once a day. Before the end of the experiment, the mice were fasted for 16 hours, and a small amount of peripheral blood was taken from the tail vein.

islet β-cells = assay: Immunofluorescence assay of regeneration of islet β-cells in type 1 diabetes mellitus mice; type: in vivo, mouse; details: 200 mg/kg twice daily, compared with the normal saline group, FIG. 5
Source text: as §1, §2, §3
Immunofluorescence assay was used to measure the regeneration of islet β-cells of type 1 diabetes mellitus mice.

[2] = system: type 1 diabetes mellitus mice; assay: Insulin concentration in peripheral blood measured by ultrasensitive insulin kit; type: in vivo, mouse; details: 200 mg/kg twice daily; fasted for 16 hours; compared with the normal saline group; FIG. 6
Source text: as §1, §2, §3
The concentration of insulin in peripheral blood of mice was measured by an ultrasensitive insulin kit.

## COC(=O)[C@H](O)[C@@H](O)[C@H](O)[C@H](O)COP(=O)(O)O [Compound 1-1, 6-phosphogluconic acid methyl ester]
[1]
  random blood glucose level: significantly reduced
Islet β-cells
  number of islet β-cells (regeneration): significantly increased
[2]
  concentration of fasting insulin in peripheral blood: significantly increased
